Test results as given in patent US20120028917A1, “Use Of N-(4-((3-(2-Amino-4-Pyrimidinyl)-2-Pyridinyl)Oxy)Phenyl)-4-(4-Methyl-2-Thienyl)-1-Phthalazinamine In The Treatment Of Antimitotic Agent Resistant Cancer” (Amgen Inc., priority 2009, published 2012).
Values joined by “and” are separate entries in the source; they are usually repeats but may differ in a detail not shown here. Equal values may be shown once.

Columns and labels:
[1] = system: MDR tumor cell lines expressing either P-gp or BCRP; assay: p-histone H3 / polyploidy in MDR tumor cell lines (summary); format: cell-based; settings: Homo sapiens; all cell lines tested irrespective of P-gp or BCRP status; read-out: IC50 or EC50 values (p-histone H3 inhibition or polyploidy)
Protocol: (§1) All high-content cell assays were performed on an ArrayScan VTi HCS Reader (Cellomics). Tumor cell lines were treated with AMG 900, AZD1152, MK-0457, or PHA-739358 (concentration range varied based on potency). The cells were prepared for intracellular staining with an anti-p-histone H3 Ser^10 antibody as previously described (1). Detection was performed with an anti-rabbit IgG-alexa-568 antibody and DAPI. The cellular levels of p-histone H3 were analyzed using Target Activation V2 algorithm (Cellomics) to determine the percentage of positive cells. For the imaging assays, the concentration-response curves and corresponding IC50 and EC50 values were calculated using the percentage of cells affected versus the DMSO control.
Tumor cells were treated with AMG 900, AZD1152, MK-0457, or PHA-739358 (range concentration varied based on potency) for 24 hours and processed for cell-cycle analysis (DNA staining only) as previously described (1). Cells were analyzed on a LSRII flow cytometer using BD FACS Diva software. The concentration-response curves and corresponding EC50 values were calculated using the percentage of cells with ≧4N DNA content versus the DMSO control.

MES-SA parental = assay: p-histone H3 fluorescence-based cell imaging assay; parameters: species or system human; settings: Homo sapiens, P-gp −
Protocol: as §1

NCI-H460 parental = assay: p-histone H3 fluorescence-based cell imaging assay; parameters: species or system human; settings: Homo sapiens, P-gp −
Protocol: as §1

[2] = system: MDA-MB-231 PTX paclitaxel resistant; assay: p-histone H3 fluorescence-based cell imaging assay; parameters: species or system human; settings: Homo sapiens
Protocol: as §1

[3] = system: NCI-H460 PTX paclitaxel resistant; assay: p-histone H3 fluorescence-based cell imaging assay; parameters: species or system human; settings: Homo sapiens
Protocol: as §1

[4] = system: MES-SA-Dx5 doxorubicin resistant; assay: p-histone H3 fluorescence-based cell imaging assay; parameters: species or system human; settings: Homo sapiens
Protocol: as §1

MDA-MB-231 parental = assay: p-histone H3 fluorescence-based cell imaging assay; parameters: species or system human; settings: Homo sapiens, P-gp −
Protocol: as §1

[5] = system: NCI-H460-taxol resistant tumor xenografts; assay: Growth of established NCI-H460-taxol resistant xenografts (Example 4); format: in vivo, athymic nude mice
Protocol: To investigate whether AMG 900-induced suppression of aurora kinase activity inhibits cell proliferation, the antitumor efficacy of AMG 900 was evaluated in vivo against NCI-H460-taxol resistant tumor xenografts in athymic nude mice. Mice were dosed PO with AMG 900 (BID) either intermittently or continuously. Mice were dosed IP with paclitaxel (taxol) 5 days/week. An internal Amgen compound was used as a positive control in this study (data not shown). Tumors were measured twice per week. Treatment began on day 12 when the tumors were established. All groups were provided nutritional supplements on a daily basis throughout the study to maintain body weight. AMG 900 (free base) was formulated into suspension to concentrations of 1.5 and 0.3 mg/mL. […] The duration of the dosing phase for AMG 900 was three weeks, and two weeks for the taxol group. The tumors were measured with a digital caliper and the mice were weighed twice per week. Tumor volumes were calculated as follows: […] Tumor inhibition was calculated as follows: […] FIG. 5 illustrates the effects of AMG 900 and Taxol treatment on the growth of established H460-taxol resistant tumors. […] Tumors were measured twice per week. Treatment began 12 days after tumor implantation (arrow) when tumors were approximately 170 mm^3. Mice were dosed PO or IP once or twice daily for 3 weeks. Data represent mean ±SE for each group. *P values (not shown) correspond to statistical difference between groups treated with vehicle and AMG 900 or Taxol analyzed with repeated measure Sheffe's ANOVA over time using […]. The scheduled days listed in the legend represent days/ week. All groups were provided nutritional supplements throughout the study.

HCT116 parental = assay: Colony formation assay (FIG. 6-B); format: cell-based, human; settings: 48 hours treatment, re-plated drug-free
Protocol: Cells were grown until the DMSO control wells were confluent. Cells were stained with crystal violet dye (Sigma), washed with distilled water, and imaged using a digital scanner (Hewlett-Packard). Colony formation assay was performed with HCT116 cell lines (parental and AZD1152-resistant). Cells were treated with DMSO, AMG 900, AZD1152, or paclitaxel at the indicated concentrations for 48 hours and re-plated in complete media lacking the inhibitor. After the DMSO-treated cells reached confluence, the cells were stained with crystal violet and imaged (duplicate wells).

HCT116 AZD1152-resistant = assay: Colony formation assay (FIG. 6-B); format: cell-based, human; settings: HCT116 AZD1152-resistant; 48 hours treatment, re-plated drug-free
Protocol: Tumor cell lines were obtained from the American Type Culture Collection (ATCC) unless otherwise specified. The MDA-MB-231-PTX and NCI-H460-PTX cell lines were established by growing the cells in the presence of increasing concentrations of paclitaxel over a period of 6 months. The HCT116 AZD1152-resistant cell line was established by growing the cells in the presence of AZD1152 at 80 nmol/L. Tumor cells were treated with AMG 900, paclitaxel or AZD1152 (0.5, 5, 50 nmol/L) for 48 hours, washed twice with complete media, and cells were re-plated at a density of 5000 cells per well in drug-free complete media. Cells were grown until the DMSO control wells were confluent. Cells were stained with crystal violet dye (Sigma), washed with distilled water, and imaged using a digital scanner (Hewlett-Packard). Colony formation assay was performed with HCT116 cell lines (parental and AZD1152-resistant). Cells were treated with DMSO, AMG 900, AZD1152, or paclitaxel at the indicated concentrations for 48 hours and re-plated in complete media lacking the inhibitor. After the DMSO-treated cells reached confluence, the cells were stained with crystal violet and imaged (duplicate wells).

[6] = 3mpk PO BID 7 days/week × 3 wks
[7] = 15mpk PO BID 2 days ON/5 day OFF/week × 3 wks

IC50 [1]: 2 to 3 nM
EC50 ([2]; MDA-MB-231-PTX*, Breast, P-gp+, read-out: Cellular EC50): 3 nM
IC50 ([2]; MDA-MB-231 PTX paclitaxel resistant, P-gp +): 3 nM
EC50 ([3]; NCI-H460-PTX*, Lung, P-gp+, read-out: Cellular EC50): 3 nM
IC50 ([3]; NCI-H460 PTX paclitaxel resistant, P-gp +): 3 nM
EC50 ([4]; MES-SA Dx5*, Uterine, P-gp+, read-out: Cellular EC50): 2 nM
IC50 ([4]; MES-SA-Dx5 doxorubicin resistant, P-gp +): 2 nM
SMILES: Cc1csc(-c2nnc(Nc3ccc(Oc4ncccc4-c4ccnc(N)n4)cc3)c3ccccc23)c1 [AMG 900, N-(4-((3-(2-amino-4-pyrimidinyl)-2-pyridinyl)oxy)phenyl)-4-(4-methyl-2-thienyl)-1-phthalazinamine]
IC50 (MES-SA parental): 3 nM
IC50 (NCI-H460 parental): 3 nM
IC50 (MDA-MB-231 parental): 2 nM
% Inhibition (tumor growth) [5, 6]: 60% and 60.4%
Tumor volume, Mean [5, 6]: 771 mm^3
Tumor volume, Median [5, 6]: 715.6 mm^3
% Inhibition (tumor growth) [5, 7]: 66% and 65.7%
Tumor volume, Mean [5, 7]: 689 mm^3
Tumor volume, Median [5, 7]: 612.5 mm^3
concentrations inhibiting colony formation (HCT116 parental): ≥ 5 nmol/L
concentrations inhibiting colony formation (HCT116 AZD1152-resistant): ≥ 5 nmol/L
